# Assay results from PubChem BioAssay (NCI).
#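 Dose response: 5 concentrations. Exposure: 48 h. Format: 96-well plates. Endpoint: linear interpolation; highest concentration if not reached. The concentration for full growth arrest is given as TGI.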
# Key:
# Assay in all cases: DTP human tumour cell line panel, 48 h
# 786-0 renal = system: 786-0 renal
# A498 renal = system: A498 renal
# A549 NSCLC = system: A549 NSCLC
# ACHN renal = system: ACHN renal
# BT-549 breast = system: BT-549 breast
# CAKI-1 renal = system: CAKI-1 renal
# CCRF-CEM leukemia = system: CCRF-CEM leukemia
# COLO 205 colon = system: COLO 205 colon
# DU-145 prostate = system: DU-145 prostate
# EKVX NSCLC = system: EKVX NSCLC
# HCC-2998 colon = system: HCC-2998 colon
# HCT-116 colon = system: HCT-116 colon
# HL-60(TB) leukemia = system: HL-60(TB) leukemia
# HOP-62 NSCLC = system: HOP-62 NSCLC
# HOP-92 NSCLC = system: HOP-92 NSCLC
# HS 578T breast = system: HS 578T breast
# HT29 colon = system: HT29 colon
# IGROV1 ovarian = system: IGROV1 ovarian
# K-562 leukemia = system: K-562 leukemia
# KM12 colon = system: KM12 colon
# LOX IMVI melanoma = system: LOX IMVI melanoma
# M14 melanoma = system: M14 melanoma
# MALME-3M melanoma = system: MALME-3M melanoma
# MCF7 breast = system: MCF7 breast
# MDA-MB-231 breast = system: MDA-MB-231 breast
# MDA-MB-435 = system: MDA-MB-435
# MDA-N = system: MDA-N
# MOLT-4 leukemia = system: MOLT-4 leukemia
# NCI-H226 lung = system: NCI-H226 lung
# NCI-H23 lung = system: NCI-H23 lung
# NCI-H460 lung = system: NCI-H460 lung
# NCI-H522 lung = system: NCI-H522 lung
# NCI/ADR-RES ovarian = system: NCI/ADR-RES ovarian
# OVCAR-3 ovarian = system: OVCAR-3 ovarian
# OVCAR-4 ovarian = system: OVCAR-4 ovarian
# OVCAR-5 ovarian = system: OVCAR-5 ovarian
# OVCAR-8 ovarian = system: OVCAR-8 ovarian
# PC-3 prostate = system: PC-3 prostate
# RPMI-8226 leukemia = system: RPMI-8226 leukemia
# RXF 393 renal = system: RXF 393 renal
# SF-268 CNS = system: SF-268 CNS
# SF-295 CNS = system: SF-295 CNS
# SF-539 CNS = system: SF-539 CNS
# SK-MEL-2 melanoma = system: SK-MEL-2 melanoma
# SK-MEL-28 melanoma = system: SK-MEL-28 melanoma
# SK-MEL-5 melanoma = system: SK-MEL-5 melanoma
# SN12C renal = system: SN12C renal
# SNB-19 CNS = system: SNB-19 CNS
# SNB-75 CNS = system: SNB-75 CNS
# SR leukemia = system: SR leukemia
# SW-620 colon = system: SW-620 colon
# T-47D breast = system: T-47D breast
# TK-10 renal = system: TK-10 renal
# U251 CNS = system: U251 CNS
# UACC-257 melanoma = system: UACC-257 melanoma
# UACC-62 melanoma = system: UACC-62 melanoma
# UO-31 renal = system: UO-31 renal
# HCT-15 colon = system: HCT-15 colon
# SK-OV-3 ovarian = system: SK-OV-3 ovarian
compound,measurement,setting,value
NS(=O)(=O)c1c(O)c2ccccc2oc1=O,TGI,786-0 renal,> 100 µM
same,TGI,A498 renal,> 100 µM
same,TGI,A549 NSCLC,> 100 µM
same,TGI,ACHN renal,> 100 µM
same,TGI,BT-549 breast,> 100 µM
same,TGI,CAKI-1 renal,> 100 µM
same,TGI,CCRF-CEM leukemia,> 100 µM
same,TGI,COLO 205 colon,> 100 µM
same,TGI,DU-145 prostate,> 100 µM
same,TGI,EKVX NSCLC,> 100 µM
same,TGI,HCC-2998 colon,> 100 µM
same,TGI,HCT-116 colon,> 100 µM
same,TGI,HL-60(TB) leukemia,> 100 µM
same,TGI,HOP-62 NSCLC,> 100 µM
same,TGI,HOP-92 NSCLC,> 100 µM
same,TGI,HS 578T breast,> 100 µM
same,TGI,HT29 colon,> 100 µM
same,TGI,IGROV1 ovarian,> 100 µM
same,TGI,K-562 leukemia,> 100 µM
same,TGI,KM12 colon,> 100 µM
same,TGI,LOX IMVI melanoma,> 100 µM
same,TGI,M14 melanoma,> 100 µM
same,TGI,MALME-3M melanoma,> 100 µM
same,TGI,MCF7 breast,> 100 µM
same,TGI,MDA-MB-231 breast,> 100 µM
same,TGI,MDA-MB-435,> 100 µM
same,TGI,MDA-N,> 100 µM
same,TGI,MOLT-4 leukemia,> 100 µM
same,TGI,NCI-H226 lung,> 100 µM
same,TGI,NCI-H23 lung,> 100 µM
same,TGI,NCI-H460 lung,> 100 µM
same,TGI,NCI-H522 lung,> 100 µM
same,TGI,NCI/ADR-RES ovarian,> 100 µM
same,TGI,OVCAR-3 ovarian,> 100 µM
same,TGI,OVCAR-4 ovarian,> 100 µM
same,TGI,OVCAR-5 ovarian,> 100 µM
same,TGI,OVCAR-8 ovarian,> 100 µM
same,TGI,PC-3 prostate,> 100 µM
same,TGI,RPMI-8226 leukemia,> 100 µM
same,TGI,RXF 393 renal,> 100 µM
same,TGI,SF-268 CNS,> 100 µM
same,TGI,SF-295 CNS,> 100 µM
same,TGI,SF-539 CNS,> 100 µM
same,TGI,SK-MEL-2 melanoma,> 100 µM
same,TGI,SK-MEL-28 melanoma,> 100 µM
same,TGI,SK-MEL-5 melanoma,> 100 µM
same,TGI,SN12C renal,> 100 µM
same,TGI,SNB-19 CNS,> 100 µM
same,TGI,SNB-75 CNS,> 100 µM
same,TGI,SR leukemia,> 100 µM
same,TGI,SW-620 colon,> 100 µM
same,TGI,T-47D breast,> 100 µM
same,TGI,TK-10 renal,> 100 µM
same,TGI,U251 CNS,> 100 µM
same,TGI,UACC-257 melanoma,> 100 µM
same,TGI,UACC-62 melanoma,> 100 µM
same,TGI,UO-31 renal,> 100 µM
O=C(OC1OC2COC(=O)c3cc(O)c(O)c(O)c3-c3c(cc(O)c(O)c3O)C(=O)OC3C2OC(=O)[C@@]24CC(=O)[C@@](O)(OC25C(=O)O[C@H]2[C@@H](O)CO[C@@]25O)C2(O)Oc5c(O)c(O)cc(c5C24)C(=O)OC13)c1cc(O)c(O)c(O)c1 (some centres undefined),TGI,786-0 renal,> 100 µM
same,TGI,A498 renal,> 100 µM
same,TGI,A549 NSCLC,> 100 µM
same,TGI,ACHN renal,> 100 µM
same,TGI,BT-549 breast,> 100 µM
same,TGI,CAKI-1 renal,32.1 µM
same,TGI,CCRF-CEM leukemia,87.8 µM
same,TGI,COLO 205 colon,> 100 µM
same,TGI,DU-145 prostate,> 100 µM
same,TGI,EKVX NSCLC,> 100 µM
same,TGI,HCC-2998 colon,> 100 µM
same,TGI,HCT-116 colon,> 100 µM
same,TGI,HCT-15 colon,> 100 µM
same,TGI,HL-60(TB) leukemia,92.3 µM
same,TGI,HOP-62 NSCLC,> 100 µM
same,TGI,HOP-92 NSCLC,> 100 µM
same,TGI,HS 578T breast,> 100 µM
same,TGI,HT29 colon,> 100 µM
same,TGI,IGROV1 ovarian,> 100 µM
same,TGI,K-562 leukemia,> 100 µM
same,TGI,KM12 colon,68.6 µM
same,TGI,LOX IMVI melanoma,25.1 µM
same,TGI,M14 melanoma,> 100 µM
same,TGI,MALME-3M melanoma,> 100 µM
same,TGI,MCF7 breast,29.1 µM
same,TGI,MDA-MB-231 breast,18.5 µM
same,TGI,MDA-MB-435,33 µM
same,TGI,MDA-N,> 100 µM
same,TGI,MOLT-4 leukemia,> 100 µM
same,TGI,NCI-H226 lung,> 100 µM
same,TGI,NCI-H23 lung,> 100 µM
same,TGI,NCI-H460 lung,> 100 µM
same,TGI,NCI-H522 lung,88 µM
same,TGI,NCI/ADR-RES ovarian,> 100 µM
same,TGI,OVCAR-3 ovarian,> 100 µM
same,TGI,OVCAR-4 ovarian,> 100 µM
same,TGI,OVCAR-5 ovarian,> 100 µM
same,TGI,OVCAR-8 ovarian,> 100 µM
same,TGI,PC-3 prostate,> 100 µM
same,TGI,RPMI-8226 leukemia,> 100 µM
same,TGI,RXF 393 renal,> 100 µM
same,TGI,SF-268 CNS,> 100 µM
same,TGI,SF-295 CNS,> 100 µM
same,TGI,SK-MEL-2 melanoma,> 100 µM
same,TGI,SK-MEL-28 melanoma,> 100 µM
same,TGI,SK-MEL-5 melanoma,> 100 µM
same,TGI,SK-OV-3 ovarian,> 100 µM
same,TGI,SN12C renal,> 100 µM
same,TGI,SNB-19 CNS,> 100 µM
same,TGI,SNB-75 CNS,> 100 µM
same,TGI,SR leukemia,94.6 µM
same,TGI,SW-620 colon,> 100 µM
same,TGI,T-47D breast,> 100 µM
same,TGI,U251 CNS,> 100 µM
same,TGI,UACC-257 melanoma,> 100 µM
same,TGI,UACC-62 melanoma,> 100 µM
same,TGI,UO-31 renal,> 100 µM
